Measurements from patent US11225481B2 (Centre national de la recherche scientifique, priority 2015, dated 2022).
“And” between values parts separate entries of the source, which are not always exact repeats. Identical values can stand only once. Like-named read-outs stand apart in the source and are kept apart here.

What was measured:
BRD4(BD1) [1] = molecular target: T1, BRD4(BD1) (Homo sapiens, UniProt O60885); experiment: HTRF assay, disruption of bromodomain/histone peptide interaction; assay type: binding; settings: for LE (Ligand Efficiency): LE = 1.4(−log(IC50)/N), BRD4(BD1)
T1 construct: a BRD4(BD1) synthetic gene that includes a TEV cleavage site was purchased from LifeTechnology; made in house
Protocol: (§1) HTRF assays were performed in white 384 Well Small Volume™ HiBase Polystyrene Microplates (Greiner) with a total working volume of 20 μL. Compounds were dispensed, with 200 nL per well (1% final DMSO), from a concentration stock of 1 mM in 100% DMSO and with serial DMSO dilutions, using a Mosquito Crystal pipetting robot platform (TTP labtech). The IC50 measurements were performed in triplicates (Table 2 and 3). All HTRF reagents were purchased from CisBio Bioassays and reconstituted according to the supplier protocols. For each assay 14.7 μL of mix 1 (protein+peptide) is added in the assay wells, containing previously dispensed inhibitors, according to the final concentration and buffer described in Table 4, using a Biomek NX MC pipetting robot (Beckman). Then, 5.1 μL of mix 2 (donnor+acceptor) is added. HTRF signals were measured, after a final incubation (overnight at room temperature), using a PHERAstar FS (BMG Labtech) with an excitation filter at 337 nm and fluorescence wavelength measurement at 620 and 665 nm, an integration delay of 60 μs and an integration time of 500 μs. Results were analyzed with a two-wavelengths signal ratio: [intensity (665 nm)/intensity (620 nm)]*10^4. Percentage of inhibition was calculated using the following equation: % inhibition=[(compound signal)−(min signal)]/[(max signal)−(min signal)]*100, where ‘max signal’ is the signal ratio with the compound vehicle alone (DMSO) and ‘min signal’ the signal ratio without peptide.
(§2) For Isothermal Titration Calorimetry (ITC) and crystallogenesis, BRD4(BD1) was produced and purified using a histidine tag affinity chromatography as described by Filipakopoulos et al.9 For these experiments, a pNIC28-BSA4 expression vector containing BRD4(BD1) and a Tobacco Etch Virus (TEV) protease cleavage site have kindly been provided by Stefan Knapp laboratory from the SGC at the University of Oxford. After size exclusion chromatography, the fractions presenting pure BRD4(BD1) after TEV cleavage of the histidine tag were pooled and concentrated to 25 mg/mL for crystallogenesis. For ITC assays, the protein was concentrated up to at 6 mg/mL and the DTT was removed using a buffer exchange column (PD10 from GE healthcare) equilibrated with 10 mM HEPES pH=7.5, 150 mM NaCl. For Homogeneous Time Resolved Fluorimetry (HTRF) experiments, a BRD4(BD1) synthetic gene that includes a TEV cleavage site was purchased from LifeTechnology in a pDONR transport vector before cloning into a pDESTTM15 expression vector for GST affinity purification. Protein production and purification was carried out using similar protocols and buffers as used for the His-BRD4(BD1) system. Purification was carried on GST affinity resin (Thermo Scientific) and reduced glutathione was used for protein release. GST-BRD4(BD1) was further purified by size exclusion chromatography on a Superdex 16/60 Hiload column (GE Healthcare) using 20 mM TRIS pH=8.0, 150 mM NaCl Buffer.

BRD3(BD1) = molecular target: T2, BRD3(BD1) (Homo sapiens, UniProt Q15059); experiment: HTRF bromodomain selectivity profile; assay type: binding; settings: Table 3 selectivity profile
T2 construct: purchased BPS Bioscience
Protocol: as §1, with “Compounds” for “HTRF assays were performed in white 384 Well Small Volume™ HiBase Polystyrene Microplates (Greiner) with a total working volume of 20 μL. Compounds”, “The IC50 measurements were performed in triplicates (Table 2 and 3).” left out, “[intensity (665 nm)/intensity (620 nm)]*10^4.” left out, “peptide. For IC50 measurements, values were normalized and fitted with Prism (GraphPad software) using the following equation: […] Selectivity profiles of bromodomain inhibitors were performed as described in HTRF screen section. […] HTRF detection reagents (EPIgeneous™ Binding Domain kits) were purchased from Cisbio Bioassays and used according to supplier's protocol. GST tagged bromodomain proteins were purchased from BPS Bioscience and histone peptide from Anaspec. [table]” for “peptide.”

BRD3(BD2) = molecular target: T3, BRD3(BD2) (Homo sapiens, UniProt Q15059); experiment: HTRF bromodomain selectivity profile; assay type: binding; settings: Table 3 selectivity profile
T3 construct: purchased BPS Bioscience
Protocol: as §1, with “Compounds” for “HTRF assays were performed in white 384 Well Small Volume™ HiBase Polystyrene Microplates (Greiner) with a total working volume of 20 μL. Compounds”, “The IC50 measurements were performed in triplicates (Table 2 and 3).” left out, “[intensity (665 nm)/intensity (620 nm)]*10^4.” left out, “peptide. For IC50 measurements, values were normalized and fitted with Prism (GraphPad software) using the following equation: […] Selectivity profiles of bromodomain inhibitors were performed as described in HTRF screen section. […] HTRF detection reagents (EPIgeneous™ Binding Domain kits) were purchased from Cisbio Bioassays and used according to supplier's protocol. GST tagged bromodomain proteins were purchased from BPS Bioscience and histone peptide from Anaspec. [table]” for “peptide.”

BRD2(BD1) = molecular target: T4, BRD2(BD1) (Homo sapiens, UniProt P25440); experiment: HTRF bromodomain selectivity profile; assay type: binding; settings: Table 3 selectivity profile
T4 construct: purchased BPS Bioscience
Protocol: as §1
(§3) Selectivity profiles of bromodomain inhibitors were performed as described in HTRF screen section. […] HTRF detection reagents (EPIgeneous™ Binding Domain kits) were purchased from Cisbio Bioassays and used according to supplier's protocol. GST tagged bromodomain proteins were purchased from BPS Bioscience and histone peptide from Anaspec.

BRD2(BD2) = molecular target: T5, BRD2(BD2) (Homo sapiens, UniProt P25440); experiment: HTRF bromodomain selectivity profile; assay type: binding; settings: Table 3 selectivity profile
T5 construct: purchased BPS Bioscience
Protocol: as §1, §3

BRD4(BD2) = molecular target: T6, BRD4(BD2) (Homo sapiens, UniProt O60885); experiment: HTRF bromodomain selectivity profile; assay type: binding; settings: Table 3 selectivity profile
T6 construct: purchased BPS Bioscience
Protocol: as §1, §3

BRDT(BD1) = molecular target: T7, BRDT(BD1) (Homo sapiens, UniProt Q58F21); experiment: HTRF bromodomain selectivity profile; assay type: binding; settings: Table 3 selectivity profile
T7 construct: purchased BPS Bioscience
Protocol: as §1, §3

ATAD2 = molecular target: T8, ATAD2 (Homo sapiens, UniProt Q6PL18); experiment: HTRF bromodomain selectivity profile, non-BET control; assay type: binding; settings: non-BET family member bromodomain control
T8 construct: GST tagged bromodomain proteins were purchased from BPS Bioscience; purchased BPS Bioscience
T8 sequence (Q6PL18 980-1092 limits assumed): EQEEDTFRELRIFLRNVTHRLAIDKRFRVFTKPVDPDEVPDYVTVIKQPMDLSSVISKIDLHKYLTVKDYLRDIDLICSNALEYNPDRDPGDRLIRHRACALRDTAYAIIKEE
Protocol: as §1, §3

BET bromodomains = experiment: Selectivity profile across BET bromodomains (HTRF); assay type: binding; settings: in words
Protocol: as §3

BRD4(BD1) [2] = molecular target: T1, BRD4(BD1); experiment: Isothermal Titration Calorimetry; assay type: binding
From the text: as §2
ITC was used to evaluate the thermodynamics parameters of the binding between BRD4(BD1) and the selected compounds, using ITC conditions previously described by Filippakopoulos et al.8 Purified BRD4(BD1) was extensively dialyzed in the ITC buffer containing 10 mM Hepes pH=7.5 and 150 mM NaCl. Compounds were diluted directly in the last protein dialysate prior to experiments. Titrations were carried out on a MicroCal ITC200 microcalorimeter (GE Healthcare, Piscataway, N.J.). Each experiment was designed using a titrant concentration (protein in the syringe) set 10 to 15 times the analyte concentration (compound in the cell generally between 10 and 35 μM) and using 13 injections at 35° C. A first small injection (generally 0.2 μL) was included in the titration protocol in order to remove air bubbles trapped in the syringe prior titration. Raw data were scaled after setting the zero to the titration saturation heat value. Integrated raw ITC data were fitted to a one site non-linear least squares fit model using the MicroCal Origin plugin as implemented in Origin 7 (Origin Lab). Finally, ΔG and TΔS values were calculated from the fitted ΔH and KA values using the equations ΔG=−R.T. ln KA and ΔG=ΔH−TΔS.

acute leukemia = settings: patients, phase I acute leukemia study; cited from earlier work
[3] = test system: BD2 domain of BRD2 and BRD3; settings: cited from earlier work
[4] = HTRF, mean ± SD of three experiments, Table 2, read-out: IC50 μM, effect on BRD4(BD1) activity
[5] = HTRF, Table 1′, TABLE 2, read-out: BRD4(BD1) IC50
[6] = Table 3 selectivity profile, mean ± SD of three experiments, read-out: IC50 (μM) BRD4(BD1)

T3 sequence (Q15059 306-415 limits assumed): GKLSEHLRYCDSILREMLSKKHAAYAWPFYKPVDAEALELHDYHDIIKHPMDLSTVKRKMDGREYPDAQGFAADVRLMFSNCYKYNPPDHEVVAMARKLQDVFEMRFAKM
T4 sequence (P25440 74-180 limits assumed): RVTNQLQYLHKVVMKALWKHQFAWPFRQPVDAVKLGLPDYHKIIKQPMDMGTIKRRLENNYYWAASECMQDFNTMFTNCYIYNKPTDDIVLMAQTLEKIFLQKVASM
T5 sequence (P25440 344-453 limits assumed): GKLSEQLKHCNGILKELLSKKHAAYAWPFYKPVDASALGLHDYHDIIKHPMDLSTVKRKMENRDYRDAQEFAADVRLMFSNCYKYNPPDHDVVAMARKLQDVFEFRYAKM
T2 sequence (Q15059 34-140 limits assumed): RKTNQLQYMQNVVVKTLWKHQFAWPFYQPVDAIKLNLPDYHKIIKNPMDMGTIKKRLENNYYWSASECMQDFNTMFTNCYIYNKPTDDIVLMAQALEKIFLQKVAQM

| Structure (SMILES) | IC50 (BRD4(BD1) [1]; [4]) [µM] | IC50 (BRD3(BD1)) [µM] | IC50 (BRD3(BD2)) [µM] | IC50 (BRD2(BD1)) [µM] | IC50 (BRD2(BD2)) [µM] | IC50 (BRD4(BD2)) [µM] | IC50 (BRDT(BD1)) [µM] | IC50 (BRD4(BD1) [1]; [5]) | LE (Ligand Efficiency) (BRD4(BD1) [1]) | IC50 (BRD4(BD1) [1]; [6]) [µM] | IC50 (ATAD2) [µM] | selectivity profile among BET bromodomains (BET bromodomains) | fold increased potency (7a vs 6a) (BRD4(BD1) [1]; HTRF IC50 BRD4(BD1)) [fold] | enthalpy change (BRD4(BD1) [2]; ITC, BRD4(BD1)) [kcal/mol] | Kd (BRD4(BD1) [2]; Isothermal Titration Calorimetry) [µM] | fold decrease in potency as compared to 7a (BRD4(BD1) [1]; HTRF IC50 BRD4(BD1)) [fold] | clinical response (acute leukemia) | bromodomain binding preference [3] |
| --- | --- | --- | --- | --- | --- | --- | --- | --- | --- | --- | --- | --- | --- | --- | --- | --- | --- | --- |
| Cn1cnc2c1c(=O)[nH]c(=O)n2Cc1ccc(Cl)cc1 [Compound 4b] | 9 | 14 | 4 | > 100 | 7 | 5 | 27 | – | – | – | – | – | – | – | – | – | – | – |
| CCCCn1c(=O)[nH]c(=O)c2c1ncn2CC [Compound 6a, 3-Butyl-7-ethylxanthine] | 13 | 4.8 ± 0.3 | 5.8 ± 0.2 | 18.8 ± 0.7 | 6.6 ± 0.3 | 8.1 ± 0.3 | 7.9 ± 0.4 | 13 ± 0.3 µM | 0.40 | 13 ± 0.3 | > 100 | pan-BET inhibition profile | – | – | – | – | – | – |
| CCn1cnc2c1c(=O)[nH]c(=O)n2Cc1ccc(Cl)cc1 [Compound 7a] | 2.6 | 1.8 ± 1.1 | 1.8 ± 0.2 | 4.7 ± 0.1 | 1.6 ± 0.2 | 1.9 ± 0.1 | 2.3 ± 0.2 | 2.6 µM | 0.37 | 2.6 ± 0.1 | > 100 | pan-BET inhibition profile | 2 | -6.3 | 1.8 | – | – | – |
| CCn1c(CSc2n[nH]c(N)n2)nc2c1c(=O)[nH]c(=O)n2Cc1ccc(Cl)cc1 [Compound 22a, 8-(5-Amino-1H-[1,2,4]triazol-3-ylsulfanylmethyl)-3-(4-chlorobenzyl)-7-ethyl-3,7-dihydro-purine-2,6-dione] | 26.4 | 31.7 ± 1.1 | – | 30 ± 0.9 | – | – | – | 26.4 µM | 0.17 | 26.4 ± 0.7 | – | shift of selectivity towards BET-BD1 domains | – | – | – | 10 | – | – |
| CCn1c(CSc2nc3nc(C)cc(C)n3n2)nc2c1c(=O)[nH]c(=O)n2Cc1ccc(Cl)cc1 [Compound 25a] | 12.6 | 40.7 ± 2.2 | 23.9 ± 1.4 | 30.1 ± 1.3 | > 100 | > 100 | 65.3 ± 8.1 | – | – | – | > 100 | – | – | – | – | – | – | – |
| CCc1cc(CC)n2nc(SCc3nc4c(c(=O)[nH]c(=O)n4Cc4ccc(Cl)cc4)n3CC)nc2n1 [Compound 26a] | 7.9 | 43.5 ± 7.1 | 2.1 ± 0.5 | 31.9 ± 0.5 | 9.5 ± 0.5 | > 100 | 42.5 ± 3.9 | – | – | – | 56.4 ± 7.9 | – | – | – | – | – | – | – |
| CCCCc1c(C)nc2nc(SCc3nc4c(c(=O)[nH]c(=O)n4Cc4ccc(Cl)cc4)n3CC)nn2c1C [Compound 27b, 8-(6-Butyl-5,7-dimethyl-[1,2,4]triazolo[1,5-a]pyrimidin-2-ylsulfanylmethyl)-3-(4-chlorobenzyl)-7-ethyl-3,7-dihydro-purine-2,6-dione] | 20.4 | – | – | – | – | – | – | 20 µM and 20.4 µM | 0.15 | 20.4 ± 3.6 | – | selective towards BRD4(BD1) | – | – | – | – | – | – |
| Cc1sc2c(c1C)C(c1ccc(Cl)cc1)=N[C@@H](CC(=O)Nc1ccc(O)cc1)c1nnc(C)n1-2 [OTX015, (6S)-4-(4-chlorophenyl)-N-(4-hydroxyphenyl)-2,3,9-trimethyl-6H-thieno[3,2-f][1,2,4]triazolo[4,3-a][1,4]diazepine-6-acetamide] | – | – | – | – | – | – | – | – | – | – | – | – | – | – | – | – | induced remissions, including complete remission in two patients with refractory disease | – |
| COc1cc(OC)c2c(=O)[nH]c(-c3cc(C)c(OCCO)c(C)c3)nc2c1 [RVX-208, 2-[4-(2-hydroxyethoxy)-3,5-dimethylphenyl]-5,7-dimethoxy-4(3H)-quinazolinone] | – | – | – | – | – | – | – | – | – | – | – | – | – | – | – | – | – | binds preferentially to the BD2 domain of BRD2 and BRD3 |
